Results: the supplement of paper PMC8617591

Experiments:
[1] = tested on: Mycobacterium tuberculosis Erdman (autoluminescent); assay: AUC25, normalised area under dose response up to IC25 (fraction (0-1)); higher = more potent at low dose
Description: (§1)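 DiaMOND dose responses (10 doses, 1.5- or 2-fold spacing, equipotent around IC90) of autoluminescent M. tuberculosis Erdman in 8 in vitro models. Read-out is OD600, or luminescence for the intracellular (J774) and dormancy models, background-subtracted and normalised to untreated wells. A 3-parameter Hill fit gives Einf and AUC25 (area to IC25 normalised by IC25); GRinf comes from a Hill fit of the Hafner normalised growth rate. Biological replicates passing QC are averaged. Single drugs only.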

[2] = tested on: Mycobacterium tuberculosis Erdman (autoluminescent); assay: GRinf, maximum normalised growth rate inhibition (unitless (-1 to 1)); higher = less effect (negative = killing)
Description: as §1

[3] = tested on: Mycobacterium tuberculosis Erdman (autoluminescent); assay: Einf, fitted maximum growth inhibition (fraction); higher = stronger maximal inhibition
Description: as §1

COc1nc2ccc(Br)cc2cc1[C@@H](c1ccccc1)[C@@](O)(CCN(C)C)c1cccc2ccccc12 [bedaquiline]
Details	AUC25, [1]	Einf, [3]	GRinf, [2]
in vitro model: acidic pH 5.7, time point: constant (~7 days, model-specific)	0.109	0.921	-0.617
in vitro model: acidic pH 5.7, time point: terminal (~4-5 doublings, model-specific)	0.0902	0.988	-0.475
in vitro model: intracellular J774, time point: constant = terminal	–	0.979	-0.319

Details	AUC25, [1]	Einf, [3]	GRinf, [2]
in vitro model: butyrate, time point: constant (~7 days, model-specific)	0.0777	0.964	-0.167
in vitro model: butyrate, time point: terminal (~4-5 doublings, model-specific)	0.0609	0.984	-0.138
in vitro model: cholesterol 0.05 mM, time point: constant (~7 days, model-specific)	0.0895	0.766	-0.328
in vitro model: cholesterol 0.05 mM, time point: terminal (~4-5 doublings, model-specific)	0.0718	0.946	-0.335
in vitro model: cholesterol-high 0.2 mM, time point: constant (~7 days, model-specific)	0.0559	0.975	-0.613
in vitro model: cholesterol-high 0.2 mM, time point: terminal (~4-5 doublings, model-specific)	0.0462	1	-0.647
in vitro model: dormancy (butyrate + nitrate, low O2), time point: constant (~7 days, model-specific)	0.0618	0.908	0.184
in vitro model: dormancy (butyrate + nitrate, low O2), time point: terminal (~4-5 doublings, model-specific)	0.0799	0.979	-0.0503
in vitro model: standard 7H9 glycerol, time point: constant = terminal	0.0758	0.97	-0.118
in vitro model: valerate, time point: constant (~7 days, model-specific)	0.0789	0.92	-0.142
in vitro model: valerate, time point: terminal (~4-5 doublings, model-specific)	0.0549	0.963	-0.0955

CC(C)/N=c1\cc2n(-c3ccc(Cl)cc3)c3ccccc3nc-2cc1Nc1ccc(Cl)cc1 [clofazimine]
Details	AUC25, [1]	Einf, [3]	GRinf, [2]
in vitro model: acidic pH 5.7, time point: constant (~7 days, model-specific)	0.0949	0.748	0.0361
in vitro model: acidic pH 5.7, time point: terminal (~4-5 doublings, model-specific)	0.0888	0.966	-0.229
in vitro model: intracellular J774, time point: constant = terminal	–	0.997	-0.696

Details	AUC25, [1]	Einf, [3]	GRinf, [2]
in vitro model: butyrate, time point: constant (~7 days, model-specific)	0.0887	0.963	-0.0183
in vitro model: butyrate, time point: terminal (~4-5 doublings, model-specific)	0.0859	0.989	-0.0492
in vitro model: cholesterol 0.05 mM, time point: constant (~7 days, model-specific)	0.129	0.527	0.329
in vitro model: cholesterol 0.05 mM, time point: terminal (~4-5 doublings, model-specific)	0.13	0.844	0.0361
in vitro model: cholesterol-high 0.2 mM, time point: constant (~7 days, model-specific)	0.12	0.938	-0.473
in vitro model: cholesterol-high 0.2 mM, time point: terminal (~4-5 doublings, model-specific)	0.114	1	-0.945
in vitro model: dormancy (butyrate + nitrate, low O2), time point: constant (~7 days, model-specific)	0.115	0.876	0.339
in vitro model: dormancy (butyrate + nitrate, low O2), time point: terminal (~4-5 doublings, model-specific)	0.0838	0.922	-0.0947
in vitro model: standard 7H9 glycerol, time point: constant = terminal	0.113	0.965	-0.0492
in vitro model: valerate, time point: constant (~7 days, model-specific)	0.155	0.88	-0.412
in vitro model: valerate, time point: terminal (~4-5 doublings, model-specific)	0.0638	0.895	0.239

CC[C@@H](CO)NCCN[C@@H](CC)CO [ethambutol]
Details	AUC25, [1]	Einf, [3]	GRinf, [2]
in vitro model: acidic pH 5.7, time point: constant (~7 days, model-specific)	0.103	0.785	-0.121
in vitro model: acidic pH 5.7, time point: terminal (~4-5 doublings, model-specific)	0.0746	0.963	-0.204
in vitro model: intracellular J774, time point: constant = terminal	–	0.977	-0.237

Details	AUC25, [1]	Einf, [3]	GRinf, [2]
in vitro model: butyrate, time point: constant (~7 days, model-specific)	0.0706	0.86	0.144
in vitro model: butyrate, time point: terminal (~4-5 doublings, model-specific)	0.0701	0.918	0.173
in vitro model: cholesterol 0.05 mM, time point: constant (~7 days, model-specific)	0.0906	0.621	0.0788
in vitro model: cholesterol 0.05 mM, time point: terminal (~4-5 doublings, model-specific)	0.0751	0.907	-0.193
in vitro model: cholesterol-high 0.2 mM, time point: constant (~7 days, model-specific)	0.0267	0.85	-0.161
in vitro model: cholesterol-high 0.2 mM, time point: terminal (~4-5 doublings, model-specific)	0.0346	1	-0.768
in vitro model: dormancy (butyrate + nitrate, low O2), time point: constant (~7 days, model-specific)	0.0829	0.777	0.544
in vitro model: dormancy (butyrate + nitrate, low O2), time point: terminal (~4-5 doublings, model-specific)	0.0685	0.914	0.295
in vitro model: standard 7H9 glycerol, time point: constant = terminal	0.0599	0.852	0.208
in vitro model: valerate, time point: constant (~7 days, model-specific)	0.0683	0.728	0.301
in vitro model: valerate, time point: terminal (~4-5 doublings, model-specific)	0.0665	0.832	0.297

NNC(=O)c1ccncc1 [isoniazid]
Details	AUC25, [1]	Einf, [3]	GRinf, [2]
in vitro model: acidic pH 5.7, time point: constant (~7 days, model-specific)	0.0571	0.674	0.0942
in vitro model: acidic pH 5.7, time point: terminal (~4-5 doublings, model-specific)	0.0392	0.933	-0.101
in vitro model: intracellular J774, time point: constant = terminal	–	0.932	-0.113

Details	AUC25, [1]	Einf, [3]	GRinf, [2]
in vitro model: butyrate, time point: constant (~7 days, model-specific)	0.0446	0.937	-0.0682
in vitro model: butyrate, time point: terminal (~4-5 doublings, model-specific)	0.0452	0.981	-0.137
in vitro model: cholesterol 0.05 mM, time point: constant (~7 days, model-specific)	0.101	0.738	-0.177
in vitro model: cholesterol 0.05 mM, time point: terminal (~4-5 doublings, model-specific)	0.0895	0.915	-0.208
in vitro model: cholesterol-high 0.2 mM, time point: constant (~7 days, model-specific)	0.0813	0.905	-0.466
in vitro model: cholesterol-high 0.2 mM, time point: terminal (~4-5 doublings, model-specific)	0.0704	0.994	-0.567
in vitro model: dormancy (butyrate + nitrate, low O2), time point: constant (~7 days, model-specific)	0.0691	0.903	0.286
in vitro model: dormancy (butyrate + nitrate, low O2), time point: terminal (~4-5 doublings, model-specific)	0.0601	0.982	-0.0707
in vitro model: standard 7H9 glycerol, time point: constant = terminal	0.0311	0.882	0.145
in vitro model: valerate, time point: constant (~7 days, model-specific)	0.0515	0.881	0.0138
in vitro model: valerate, time point: terminal (~4-5 doublings, model-specific)	0.0365	0.932	0.0316

CC(=O)NC[C@H]1CN(c2ccc(N3CCOCC3)c(F)c2)C(=O)O1 [linezolid]
Details	AUC25, [1]	Einf, [3]	GRinf, [2]
in vitro model: acidic pH 5.7, time point: constant (~7 days, model-specific)	0.105	0.813	-0.255
in vitro model: acidic pH 5.7, time point: terminal (~4-5 doublings, model-specific)	0.086	0.966	-0.214
in vitro model: intracellular J774, time point: constant = terminal	–	0.947	-0.297

Details	AUC25, [1]	Einf, [3]	GRinf, [2]
in vitro model: butyrate, time point: constant (~7 days, model-specific)	0.0921	0.894	0.0641
in vitro model: butyrate, time point: terminal (~4-5 doublings, model-specific)	0.0673	0.941	0.0625
in vitro model: cholesterol 0.05 mM, time point: constant (~7 days, model-specific)	0.152	0.692	-0.0397
in vitro model: cholesterol 0.05 mM, time point: terminal (~4-5 doublings, model-specific)	0.152	0.927	-0.195
in vitro model: cholesterol-high 0.2 mM, time point: constant (~7 days, model-specific)	0.119	0.967	-0.633
in vitro model: cholesterol-high 0.2 mM, time point: terminal (~4-5 doublings, model-specific)	0.117	1	-0.803
in vitro model: dormancy (butyrate + nitrate, low O2), time point: constant (~7 days, model-specific)	0.0427	0.907	0.164
in vitro model: dormancy (butyrate + nitrate, low O2), time point: terminal (~4-5 doublings, model-specific)	0.0425	0.989	-0.0469
in vitro model: standard 7H9 glycerol, time point: constant = terminal	0.0679	0.904	0.0704
in vitro model: valerate, time point: constant (~7 days, model-specific)	0.106	0.912	-0.0706
in vitro model: valerate, time point: terminal (~4-5 doublings, model-specific)	0.0701	0.948	-0.0311

COc1c(N2C[C@@H]3CCCN[C@@H]3C2)c(F)cc2c(=O)c(C(=O)O)cn(C3CC3)c12 [moxifloxacin]
Details	AUC25, [1]	Einf, [3]	GRinf, [2]
in vitro model: acidic pH 5.7, time point: constant (~7 days, model-specific)	0.122	0.749	-0.192
in vitro model: acidic pH 5.7, time point: terminal (~4-5 doublings, model-specific)	0.0782	0.96	-0.226
in vitro model: intracellular J774, time point: constant = terminal	–	0.957	-0.212

Details	AUC25, [1]	Einf, [3]	GRinf, [2]
in vitro model: butyrate, time point: constant (~7 days, model-specific)	0.0832	0.908	0.0408
in vitro model: butyrate, time point: terminal (~4-5 doublings, model-specific)	0.0522	0.957	0.0197
in vitro model: cholesterol 0.05 mM, time point: constant (~7 days, model-specific)	0.116	0.629	-0.0568
in vitro model: cholesterol 0.05 mM, time point: terminal (~4-5 doublings, model-specific)	0.0909	0.881	-0.0841
in vitro model: cholesterol-high 0.2 mM, time point: constant (~7 days, model-specific)	0.0781	0.824	-0.195
in vitro model: cholesterol-high 0.2 mM, time point: terminal (~4-5 doublings, model-specific)	0.0751	1	-0.609
in vitro model: dormancy (butyrate + nitrate, low O2), time point: constant (~7 days, model-specific)	0.0904	0.927	0.0805
in vitro model: dormancy (butyrate + nitrate, low O2), time point: terminal (~4-5 doublings, model-specific)	0.0579	0.974	-0.132
in vitro model: standard 7H9 glycerol, time point: constant = terminal	0.0856	0.913	0.00369
in vitro model: valerate, time point: constant (~7 days, model-specific)	0.105	0.878	-0.00227
in vitro model: valerate, time point: terminal (~4-5 doublings, model-specific)	0.0529	0.936	0.0339
